US9573957B2 (Boehringer Ingelheim International GmbH, priority 2013, dated 2017)

Legend:
[1] = target: human LTA4 hydrolase (Homo sapiens (Human), UniProt P09960); assay: LTA4H Enzyme assay (peptidase, Arg-AMC cleavage); format: biochemical; conditions: LTA4H Enzyme 1 nM, Arg-AMC substrate 50 μM, room temperature 1 h, fluorescence
Experimental: The compounds of the invention are assessed for the ability to interact with human LTA4 hydrolase in an enzymatic assay that measures the ability of the enzyme to cleave the peptide bond of arginyl-aminomethylcoumarin (Arg-AMC). LTA4H Enzyme (1 nM final), Arg-AMC substrate (50 μM final), and compound are combined in a reaction buffer (50 mM Tris-HCl (pH 7.5), 100 mM KCl, 0.5% bovine serum albumin) at room temperature for 1 h. The formation of product is assessed by measuring the fluorescence of aminomethylcoumarin product (excitation wavelength 380 nm/emission wavelength 460 nm).

[2] = test system: synthesis of LTB4 in human whole blood; assay: LTB4 production inhibition assay in human whole blood (HWB); format: cell-based; conditions: heparinized human whole blood, 15 min at 37° C., Calcimycin 20 μM 30 min, plasma LTB4 by HTRF
Experimental: The compounds of the invention are additionally tested in a human whole blood (HWB) assay to determine their ability to inhibit the synthesis of LTB4 in a cellular system. Compounds are combined with heparinized human whole blood and incubated for 15 minutes at 37° C. Calcimycin (20 μM final, prepared in phosphate-buffered saline, pH 7.4) is then added and the mixture is incubated for another 30 minutes at 37° C. The samples are centrifuged for 5 min at low speed (1500×g) and the plasma layer is removed. Plasma LTB4 concentrations are then measured using an antibody-based homogenous time-resolved fluorescence method (CisBio, Bedford, Mass.).

Sequence of human LTA4 hydrolase (P09960 whole entry): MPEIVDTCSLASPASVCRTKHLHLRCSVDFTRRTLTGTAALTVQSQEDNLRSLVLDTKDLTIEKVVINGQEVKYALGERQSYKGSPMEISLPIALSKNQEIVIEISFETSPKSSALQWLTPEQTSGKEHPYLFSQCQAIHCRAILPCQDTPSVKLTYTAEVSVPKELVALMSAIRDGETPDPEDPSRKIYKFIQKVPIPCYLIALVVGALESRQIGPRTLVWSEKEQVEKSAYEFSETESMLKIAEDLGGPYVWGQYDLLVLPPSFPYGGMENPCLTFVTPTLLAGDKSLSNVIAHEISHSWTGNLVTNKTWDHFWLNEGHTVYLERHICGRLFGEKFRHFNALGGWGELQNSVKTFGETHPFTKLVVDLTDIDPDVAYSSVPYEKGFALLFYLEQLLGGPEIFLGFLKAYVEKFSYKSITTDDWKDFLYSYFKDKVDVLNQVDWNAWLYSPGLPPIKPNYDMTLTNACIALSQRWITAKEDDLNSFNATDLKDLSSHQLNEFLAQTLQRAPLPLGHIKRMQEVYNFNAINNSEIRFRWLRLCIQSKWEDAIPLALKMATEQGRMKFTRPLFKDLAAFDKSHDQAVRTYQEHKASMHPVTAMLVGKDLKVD

SMILES | IC50 [1] [µM] | IC50 [2] [µM]
C[C@H](O)C(=O)N1CCN(CCc2coc3cc(Oc4ccc(-c5ccn[nH]5)cn4)ccc23)CC1 [Example 83, (S)-2-Hydroxy-1-[4-(2-{6-[5-(2H-pyrazol-3-yl)-pyridin-2-yloxy]-benzofuran-3-yl}-ethyl)-piperazin-1-yl]-propan-1-one] | 0.00086 | 0.24
CC(C)(O)C(=O)N1CCN(CCc2coc3cc(Oc4ccc(-c5ccn[nH]5)cn4)ccc23)CC1 [Example 85, 2-Hydroxy-2-methyl-1-[4-(2-{6-[5-(2H-pyrazol-3-yl)-pyridin-2-yloxy]-benzofuran-3-yl}-ethyl)-piperazin-1-yl]-propan-1-one] | 0.0013 | 0.31
O=C1CCCN1C1CCN(Cc2ccc3cc(Oc4ncc(-c5ccn[nH]5)cn4)ccc3c2)CC1 [Example 36, 1-(1-{6-[5-(2H-Pyrazol-3-yl)-pyrimidin-2-yloxy]-naphthalen-2-ylmethyl}-piperidin-4-yl)-pyrrolidin-2-one] | 0.0019 | 0.22
CC(=O)NCC1CCN(Cc2coc3cc(Oc4ccc(-c5ccn[nH]5)cn4)ccc23)CC1 [Example 106, N-(1-{6-[5-(2H-Pyrazol-3-yl)-pyridin-2-yloxy]-benzofuran-3-ylmethyl}-piperidin-4-ylmethyl)-acetamide] | 0.00038 | 0.12
CO[C@@H](C)C(=O)N1CCN(CCC2COc3cc(Oc4ccc(-c5ccn[nH]5)cn4)ccc32)CC1 (stereo partly drawn) [Example 88, (S)-2-Methoxy-1-[4-(2-{6-[5-(2H-pyrazol-3-yl)-pyridin-2-yloxy]-2,3-dihydro-benzofuran-3-yl}-ethyl)-piperazin-1-yl]-propan-1-one] | 0.0012 | 0.41
COCC(=O)N1CCN(Cc2ccc3cc(Oc4ncc(-c5ccn[nH]5)cn4)ccc3c2)CC1 [Example 24, 2-Methoxy-1-(4-{6-[5-(2H-pyrazol-3-yl)-pyrimidin-2-yloxy]-naphthalen-2-ylmethyl}-piperazin-1-yl)-ethanone] | 0.002 | 0.29
O=C([C@@H]1CCOC1)N1CCN(Cc2ccc3cc(Oc4ccc(-c5ccn[nH]5)cn4)ccc3n2)CC1 [Example 141, (4-{6-[5-(2H-Pyrazol-3-yl)-pyridin-2-yloxy]-quinolin-2-ylmethyl}-piperazin-1-yl)-(R)-tetrahydro-furan-3-yl-methanone] | 0.0027 | 0.4
C[C@@H](O)C(=O)N1CCN(CCC2COc3cc(Oc4ccc(-c5ccn[nH]5)cn4)ccc32)CC1 (stereo partly drawn) [Example 91, (R)-2-Hydroxy-1-[4-(2-{6-[5-(2H-pyrazol-3-yl)-pyridin-2-yloxy]-2,3-dihydro-benzofuran-3-yl}-ethyl)-piperazin-1-yl]-propan-1-one] | 0.0022 | 0.93
CO[C@H](C)C(=O)N1CCN(Cc2ccc3cc(Oc4ccc(-c5ccn[nH]5)cn4)ccc3n2)CC1 [Example 140, (R)-2-Methoxy-1-(4-{6-[5-(2H-pyrazol-3-yl)-pyridin-2-yloxy]-quinolin-2-ylmethyl}-piperazin-1-yl)-propan-1-one] | 0.00057 | 0.15
OCC1CN(Cc2ccc3cc(Oc4ccc(-c5ccn[nH]5)cn4)ccc3c2)C1 [Example 4, (1-{6-[5-(2H-Pyrazol-3-yl)-pyridin-2-yloxy]-naphthalen-2-ylmethyl}-azetidin-3-yl)-methanol] | 0.00048 | 0.16
CN(C)C(=O)N1CCN(Cc2ccc3cc(Oc4ncc(-c5ccn[nH]5)cn4)ccc3c2)CC1 [Example 34, 4-{6-[5-(2H-Pyrazol-3-yl)-pyrimidin-2-yloxy]-naphthalen-2-ylmethyl}-piperazine-1-carboxylic acid dimethylamide] | 0.00081 | 0.43
OC1CN(Cc2ccc3cc(Oc4ncc(-c5ccn[nH]5)cn4)ccc3c2)C1 [Example 49, 1-{6-[5-(2H-Pyrazol-3-yl)-pyrimidin-2-yloxy]-naphthalen-2-ylmethyl}-azetidin-3-ol] | 0.0022 | 0.21
O=C1OCCN1C1CCN(CCC2COc3cc(Oc4ccc(-c5ccn[nH]5)cn4)ccc32)CC1 (centres unmarked) [Example 69, 3-[1-(2-{6-[5-(2H-Pyrazol-3-yl)-pyridin-2-yloxy]-2,3-dihydro-benzofuran-3-yl}-ethyl)-piperidin-4-yl]-oxazolidin-2-one] | 0.00075 | 0.21
NC(=O)C1CCN(Cc2ccc3cc(Oc4ncc(-c5ccn[nH]5)cn4)ccc3c2)CC1 [Example 27, 1-{6-[5-(2H-Pyrazol-3-yl)-pyrimidin-2-yloxy]-naphthalen-2-ylmethyl}-piperidine-4-carboxylic acid amide] | 0.0014 | 0.2
CC(C)(O)C(=O)N1CC2CCC(C1)N2Cc1ccc2cc(Oc3ccc(-c4ccn[nH]4)cn3)ccc2n1 [Example 58, 2-Hydroxy-2-methyl-1-(8-{6-[5-(2H-pyrazol-3-yl)-pyridin-2-yloxy]-quinolin-2-ylmethyl}-3,8-diaza-bicyclo[3.2.1]oct-3-yl)-propan-1-one] | 0.00045 | 0.12
COCCCC(=O)N1CCN(Cc2ccc3cc(Oc4ccc(-c5ccn[nH]5)cn4)ccc3n2)CC1 [Example 142, 4-Methoxy-1-(4-{6-[5-(2H-pyrazol-3-yl)-pyridin-2-yloxy]-quinolin-2-ylmethyl}-piperazin-1-yl)-butan-1-one] | 0.0025 | 0.93
CCS(=O)(=O)N1CCN(Cc2ccc3cc(Oc4ccc(-c5ccn[nH]5)cn4)ccc3n2)CC1 [Example 67, 2-(4-Ethanesulfonyl-piperazin-1-ylmethyl)-6-[5-(2H-pyrazol-3-yl)-pyridin-2-yloxy]-quinoline] | 0.0029 | 0.55
CN(C(=O)CO)[C@@H]1CCN(Cc2coc3cc(Oc4ccc(-c5ccn[nH]5)cn4)ccc23)C1 [Example 113, 2-Hydroxy-N-methyl-N-((R)-1-{6-[5-(2H-pyrazol-3-yl)-pyridin-2-yloxy]-benzofuran-3-ylmethyl}-pyrrolidin-3-yl)-acetamide] | 0.00042 | 0.16
C[C@H](O)CC(=O)N1CCN(Cc2ccc3cc(Oc4ccc(-c5ccn[nH]5)cn4)ccc3n2)CC1 [Example 117, (S)-3-Hydroxy-1-(4-{6-[5-(2H-pyrazol-3-yl)-pyridin-2-yloxy]-quinolin-2-ylmethyl}-piperazin-1-yl)-butan-1-one] | 0.0037 | 0.67
O[C@H]1CCCN(Cc2ccc3cc(Oc4ccc(-c5ccn[nH]5)cn4)ccc3c2)C1 [Example 14, (S)-1-{6-[5-(2H-Pyrazol-3-yl)-pyridin-2-yloxy]-naphthalen-2-ylmethyl}-piperidin-3-ol] | 0.0012 | 0.19
C[C@H](O)C(=O)N1CCN(Cc2ccc3cc(Oc4ccc(-c5ccn[nH]5)cn4)ccc3n2)CC1 [Example 129, (S)-2-Hydroxy-1-(4-{6-[5-(2H-pyrazol-3-yl)-pyridin-2-yloxy]-quinolin-2-ylmethyl}-piperazin-1-yl)-propan-1-one] | 0.00086 | 0.18
O=C1CCCN1C1CCN(C[C@@H]2Cc3ccc(Oc4ccc(-c5ccn[nH]5)cn4)cc3O2)CC1 [Example 64, 1-(1-{(S)-6-[5-(2H-Pyrazol-3-yl)-pyridin-2-yloxy]-2,3-dihydro-benzofuran-2-ylmethyl}-piperidin-4-yl)-pyrrolidin-2-one] | 0.00095 | 0.15
O=C(CO)N1CCN(CCc2coc3cc(Oc4ccc(-c5ccn[nH]5)cn4)ccc23)CC1 [Example 82, 2-Hydroxy-1-[4-(2-{6-[5-(2H-pyrazol-3-yl)-pyridin-2-yloxy]-benzofuran-3-yl}-ethyl)-piperazin-1-yl]-ethanone] | 0.0013 | 0.41
O[C@@H]1CCCN(Cc2ccc3cc(Oc4ccc(-c5ccn[nH]5)cn4)ccc3c2)C1 [Example 15, (R)-1-{6-[5-(2H-Pyrazol-3-yl)-pyridin-2-yloxy]-naphthalen-2-ylmethyl}-piperidin-3-ol] | 0.001 | 0.19
CC1(O)CN(Cc2ccc3cc(Oc4ccc(-c5ccn[nH]5)cn4)ccc3c2)C1 [Example 11, 3-Methyl-1-{6-[5-(2H-pyrazol-3-yl)-pyridin-2-yloxy]-naphthalen-2-ylmethyl}-azetidin-3-ol] | 0.00053 | 0.11
CN(C(=O)CO)[C@@H]1CCN(Cc2ccc3cc(Oc4ccc(-c5ccn[nH]5)cn4)ccc3c2)C1 [Example 21, 2-Hydroxy-N-methyl-N-((R)-1-{6-[5-(2H-pyrazol-3-yl)-pyridin-2-yloxy]-naphthalen-2-ylmethyl}-pyrrolidin-3-yl)-acetamide] | 0.00067 | 0.1
O=C(N1CCN(Cc2ccc3cc(Oc4ccc(-c5ccn[nH]5)cn4)ccc3n2)CC1)C1(CO)CC1 [Example 138, (1-Hydroxymethyl-cyclopropyl)-(4-{6-[5-(2H-pyrazol-3-yl)-pyridin-2-yloxy]-quinolin-2-ylmethyl}-piperazin-1-yl)-methanone] | 0.0017 | 0.34
O=C([C@@H]1CCCO1)N1CC2CCC(C1)N2Cc1ccc2cc(Oc3ccc(-c4ccn[nH]4)cn3)ccc2n1 [Example 55, (8-{6-[5-(2H-Pyrazol-3-yl)-pyridin-2-yloxy]-quinolin-2-ylmethyl}-3,8-diaza-bicyclo[3.2.1]oct-3-yl)-(S)-tetrahydro-furan-2-yl-methanone] | 0.0017 | 0.28
